molecular target: T1, human GPR120 (Homo sapiens, UniProt Q5NUL3); test: Intracellular Ca2+ assay in human GPR120 stable cell line (HEK293 co-expressing Gqi5), Flexstation; type: cell-based; settings: % activity at 5 μM compared to the maximal activity of GW9508 at 6.7 μM (=100%); human GPR120 cells, Ca2+ fluorescence
T1 construct: host or cells: HEK293 cells co-expressing Gqi5
T1 sequence (Q5NUL3 1-361): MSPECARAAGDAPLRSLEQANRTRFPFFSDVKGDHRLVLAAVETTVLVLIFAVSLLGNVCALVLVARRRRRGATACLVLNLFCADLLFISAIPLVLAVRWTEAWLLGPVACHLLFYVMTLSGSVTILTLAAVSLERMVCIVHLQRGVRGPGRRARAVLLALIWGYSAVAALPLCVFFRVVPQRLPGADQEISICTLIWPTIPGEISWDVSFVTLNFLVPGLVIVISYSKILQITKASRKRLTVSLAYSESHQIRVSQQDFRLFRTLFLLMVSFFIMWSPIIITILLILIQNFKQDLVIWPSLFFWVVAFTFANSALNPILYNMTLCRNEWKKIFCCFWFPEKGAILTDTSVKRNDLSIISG
Procedure, shortened: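 HEK293 cells stably co-expressing Gqi5 and Flag-tagged human GPR120, loaded with Calcium 4 dye in HBSS/HEPES pH 7.4 at 37 °C; compounds at eight concentrations, 0.00001–20 μM, fluorescence (485/525 nm) read 90 s. EC50 from Max−Min change; percent activity relative to GW9508 maximum at 6.7 μM.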

| Compound | % Activity (GW9508 Reference Compound) [%] |
| --- | --- |
| Cc1cc2cc(Cl)cc(COc3ccc(CC(C)C(=O)O)cc3F)c2o1 (centres unmarked) [Example 120, 3-(4-((5-chloro-2-methylbenzofuran-7-yl)methoxy)-3-fluorophenyl)-2-methylpropanoic acid] | 104.49 |
| O=C(O)C1CC1c1ccc(OCc2cc(F)cc3c2OC2(CCCC2)C3)cc1 (centres unmarked) [Example 165, 2-(4-((5-fluoro-3H-spiro[benzofuran-2,1′-cyclopentane]-7-yl)methoxy)phenyl)cyclopropanecarboxylic acid] | 158.08 |
| CC(C)Oc1cc(OCc2cc(Cl)cc3c2OC(C)(C)C3)ccc1CCC(=O)O [Example 116, 3-(4-((5-chloro-2,2-dimethyl-2,3-dihydrobenzofuran-7-yl)methoxy)-2-isopropoxyphenyl)propanoic acid] | 145.6 |
| CC(Cc1ccc(OCc2ccc(C(F)(F)F)c3c2OC(C)(C)C3)c(F)c1)C(=O)O (centres unmarked) [Example 33, 3-(4-((2,2-dimethyl-4-(trifluoromethyl)-2,3-dihydrobenzofuran-7-yl)methoxy)-3-fluorophenyl)-2-methylpropanoic acid] | 142.9517 |
| CC(Cc1cc(F)c(OCc2cccc3cn[nH]c23)c(F)c1)C(=O)O (centres unmarked) [Example 260, 3-(4-((1H-indazol-7-yl)methoxy)-3,5-difluorophenyl)-2-methylpropanoic acid] | 16.67 |
| CC(=O)NCCOC(=O)C(C)Cc1ccc(OCc2cc(Cl)cc3c2OC(C)(C)C3)c(C(F)(F)F)c1 (centres unmarked) [Example 126, 2-acetamidoethyl 3-(4-((5-chloro-2,2-dimethyl-2,3-dihydrobenzofuran-7-yl)methoxy)-3-(trifluoromethyl)phenyl)-2-methylpropanoate] | 47.02 |
| CC1(C)Cc2cc(Cl)cc(CNc3ccc(CCC(=O)O)cc3)c2O1 [Example 127, 3-(4-(((5-chloro-2,2-dimethyl-2,3-dihydrobenzofuran-7-yl)methyl)amino)phenyl)propanoic acid] | 152.93 |
| CC1(C)Cc2cc(F)cc(COc3ccc(CCC(=O)O)c(OC(F)(F)F)c3)c2O1 [Example 136, 3-(4-((5-fluoro-2,2-dimethyl-2,3-dihydrobenzofuran-7-yl)methoxy)-2-(trifluoromethoxy)phenyl)propanoic acid] | 140.51 |
| CCCc1cc(OCc2cc(Cl)cc3c2OC(C)(C)C3)c(F)cc1CCC(=O)O [Example 73, 3-(4-((5-chloro-2,2-dimethyl-2,3-dihydrobenzofuran-7-yl)methoxy)-5-fluoro-2-propylphenyl)propanoic acid] | 114.85 |
| CC(Cc1ccc(OCc2cc(F)cc3c2OC(C)(C)C3)c(F)c1)C(=O)O (centres unmarked) [Example 8, 3-(3-fluoro-4-((5-fluoro-2,2-dimethyl-2,3-dihydrobenzofuran-7-yl)methoxy)phenyl)-2-methylpropanoic acid] | 135.3906 |
| CC1(C)Cc2cc(F)cc(COc3ccc4c(CC(=O)O)cc(=O)oc4c3)c2O1 [Example 263, 2-(7-((5-fluoro-2,2-dimethyl-2,3-dihydrobenzofuran-7-yl)methoxy)-2-oxo-2H-chromen-4-yl)acetic acid] | 5.98 |
| CC1(C)Cc2cc(Cl)cc(COc3ccc4c(c3)CC(C(=O)O)C4)c2O1 (centres unmarked) [Example 112, 5-((5-chloro-2,2-dimethyl-2,3-dihydrobenzofuran-7-yl)methoxy)-2,3-dihydro-1H-indene-2-carboxylic acid] | 115.42 |
| CC1(C)Cc2cc(F)cc(COc3ccc(CCC(=O)O)c4c3CCCC4)c2O1 [Example 218, 3-(4-((5-fluoro-2,2-dimethyl-2,3-dihydrobenzofuran-7-yl)methoxy)-5,6,7,8-tetrahydronaphthalen-1-yl)propanoic acid] | 114.48 |
| CC(Cc1cccc(OCc2cc(Cl)cc3c2OC(C)(C)C3)c1)C(=O)O (centres unmarked) [Example 251, 3-(3-((5-chloro-2,2-dimethyl-2,3-dihydrobenzofuran-7-yl)methoxy)phenyl)-2-methylpropanoic acid] | 61.14 |
| CC(Cc1ccc(OCc2ccc(F)c3c2OC(C)(C)C3)cc1)C(=O)O (centres unmarked) [Example 30, 3-(4-((4-fluoro-2,2-dimethyl-2,3-dihydrobenzofuran-7-yl)methoxy)phenyl)-2-methylpropanoic acid] | 176.6 |
| CC(Cc1cc(F)c(OCc2cccc3c2CC(C)(C)O3)c(F)c1)C(=O)O (centres unmarked) [Example 21, 3-(4-((2,2-dimethyl-2,3-dihydrobenzofuran-4-yl)methoxy)-3,5-difluorophenyl)-2-methylpropanoic acid] | 112.6 |

| Compound | % Activity (GW9508 Reference Compound) [%] |
| --- | --- |
| [2H]C([2H])(Oc1ccc(CCC(=O)O)c(CC)c1F)c1cc(F)cc2c1OC(C)(C)C2 [Example 228, 3-(4-(dideuterio(5-fluoro-2,2-dimethyl-2,3-dihydrobenzofuran-7-yl)methoxy)-3-fluoro-2-ethylphenyl)propanoic acid] | 119.11 |
| CC(Cc1ccc(OCc2cc(Cl)cc3c2OC(C)(C)C3)cc1Cl)C(=O)O (centres unmarked) [Example 26, 3-(2-chloro-4-((5-chloro-2,2-dimethyl-2,3-dihydrobenzofuran-7-yl)methoxy)phenyl)-2-methylpropanoic acid] | 163.7 |
| CC(Cc1ccc(OCc2cc(Cl)cc3c2OCC3(C)C)cc1)C(=O)O (centres unmarked) [Example 148, 3-(4-((5-chloro-3,3-dimethyl-2,3-dihydrobenzofuran-7-yl)methoxy)phenyl)-2-methylpropanoic acid] | 113.89 |
| CC1(C)Cc2cc(F)cc(COc3ccc(CCC(=O)O)c(Cl)c3)c2O1 [Example 47, 3-(2-chloro-4-((5-fluoro-2,2-dimethyl-2,3-dihydrobenzofuran-7-yl)methoxy)phenyl)propanoic acid] | 111.18 |
| CC1(C)Cc2c(COc3c(F)cc(C4CC4C(=O)O)cc3F)cccc2O1 (centres unmarked) [Example 22, 2-(4-((2,2-dimethyl-2,3-dihydrobenzofuran-4-yl)methoxy)-3,5-difluorophenyl)cyclopropanecarboxylic acid] | 126 |
| CC1(C)Cc2cc(Cl)cc(COc3ccc(C(C)(C)CC(=O)O)cc3)c2O1 [Example 156, 3-(4-((5-chloro-2,2-dimethyl-2,3-dihydrobenzofuran-7-yl)methoxy)phenyl)-3-methylbutanoic acid] | 148.87 |
| CC(CC(=O)O)Cc1ccc(OCc2cc(F)cc3c2OC(C)(C)C3)cc1 (centres unmarked) [Example 182, 4-(4-((5-fluoro-2,2-dimethyl-2,3-dihydrobenzofuran-7-yl)methoxy)phenyl)-3-methylbutanoic acid] | 98.43 |
| CC1(C)Cc2c(COc3ccc4c(c3)CCC4CC(=O)O)ccc(F)c2O1 (centres unmarked) [Example 94, 2-(5-((7-fluoro-2,2-dimethyl-2,3-dihydrobenzofuran-4-yl)methoxy)-2,3-dihydro-1H-inden-1-yl)acetic acid] | 98.45 |
| Cc1cc2cccc(COc3c(F)cc(CC(C)C(=O)O)cc3F)c2s1 (centres unmarked) [Example 151, 3-(3,5-difluoro-4-((2-methylbenzo[b]thiophen-7-yl)methoxy)phenyl)-2-methylpropanoic acid] | 117.38 |
| CCOC(Cc1cc(F)c(OCc2cc(F)cc3c2OC(C)(C)C3)c(F)c1)C(=O)O (centres unmarked) [Example 69, 3-(3,5-difluoro-4-((5-fluoro-2,2-dimethyl-2,3-dihydrobenzofuran-7-yl)methoxy)phenyl)-2-ethoxypropanoic acid] | 78.46 |
| CC(Cc1ccc(OCc2c(F)ccc3c2CC(C)(C)O3)cc1)C(=O)O (centres unmarked) [Example 96, 3-(4-((5-fluoro-2,2-dimethyl-2,3-dihydrobenzofuran-4-yl)methoxy)phenyl)-2-methylpropanoic acid] | 124.82 |
| CC(Cc1cc(Cl)c(OCc2cc(Cl)cc3c2OC(C)(C)C3)c(Cl)c1)C(=O)O (centres unmarked) [Example 14, 3-(3,5-dichloro-4-((5-chloro-2,2-dimethyl-2,3-dihydrobenzofuran-7-yl)methoxy)phenyl)-2-methylpropanoic acid] | 84.49 |
| CC1(C)Cc2cc(F)cc(COc3cc(Cl)c(CCC(=O)O)c(Cl)c3)c2O1 [Example 197, 3-(2,6-dichloro-4-((5-fluoro-2,2-dimethyl-2,3-dihydrobenzofuran-7-yl)methoxy)phenyl)propanoic acid] | 151.44 |
| CN(C)Cc1cc(OCc2cc(F)cc3c2OC(C)(C)C3)ccc1CCC(=O)O [Example 122, 3-(2-((dimethylamino)methyl)-4-((5-fluoro-2,2-dimethyl-2,3-dihydrobenzofuran-7-yl)methoxy)phenyl)propanoic acid] | 3.58 |
| CC1(C)Cc2cc(F)cc(COc3ccc4c(c3)CCCC4CC(=O)O)c2O1 (centres unmarked) [Example 153, 2-(6-((5-fluoro-2,2-dimethyl-2,3-dihydrobenzofuran-7-yl)methoxy)-1,2,3,4-tetrahydronaphthalen-1-yl)acetic acid] | 106.81 |

same assay, conditions: human GPR120 stably expressing cells, Ca2+ fluorescence (Max-Min), eight concentrations 0.00001 to 20 μM

| Compound | EC50 [µM] |
| --- | --- |
| CCOC(Cc1cc(F)c(OCc2cc(F)cc3c2OC(C)(C)C3)c(F)c1)C(=O)O (centres unmarked) [Example 69, 3-(3,5-difluoro-4-((5-fluoro-2,2-dimethyl-2,3-dihydrobenzofuran-7-yl)methoxy)phenyl)-2-ethoxypropanoic acid] | > 10 |

Reference: patent US20130109734A1 (Metabolex, Inc., priority 2010, published 2013)
